According to patent US11534410B2, “Amphotericin loaded PEGylated lipid nanoparticles and methods of use” (University of Mississippi, priority 2018, dated 2022):
In brackets after ≈: the same amount, converted by molar mass. Like-named read-outs stand apart in the source and are kept apart here.

What was measured:
[1] = tested on: wild type (WT) Candida albicans (ATCC90028); experiment: Microdilution (CLSI) and recovery assay, antifungal/fungicidal activity; type: cell-based; settings: for MFC: recovery assay
Procedure: FIG. 5: Antifungal activity of amphotericin B formulations. […] Each formulation was tested at 5.0-0.01 μg/ml with 2-fold dilutions. Color bar represents relative growth. A. Antifungal activity on Day 1 post AmB formulation in wild type (WT) Candida. B. & C. Antifungal activity on Day 10 post AmB formulation in WT and AmB resistant Candida strains, respectively. Each experiment was performed in triplicates.
In vitro fungicidal activity: A microdilution experiment was performed in wild type (WT) Candida albicans (ATCC90028) and Aspergillus fumigatus (ATCC 204305) as per Clinical & Laboratory Standards Institute (CLSI) protocols^37-39. […] Recovery assay was performed for fungicidal activity at both day 1 and day 10 post preparation.

[2] = tested on: AmB resistant Candida strain (ATCC 200955); experiment: Microdilution and fungicidal assay, AmB resistant strain; type: cell-based, Candida albicans; settings: Day10
Procedure: Each formulation was tested at 5.0-0.01 μg/ml with 2-fold dilutions. […] B. & C. Antifungal activity on Day 10 post AmB formulation in WT and AmB resistant Candida strains, respectively. Each experiment was performed in triplicates.

[3] = cited from earlier work
[4] = Lipid screening: solubility/dispersibility of amphotericin B in lipids; type: physicochemical
Procedure: Lipid screening is a crucial step, in order to select the lipids with the highest drug solubility and/or dispersibility. Amphotericin B (1 mg) was added to the lipid at 75° C., upon stirring at 2000 rpm for 10 mins, and observed with naked eye as well as under the microscope for precipitation/aggregation. Amphotericin B has a relatively higher solubility at elevated temperature in Precirol™ ATO 5 (glyceryl palmitostearate) in comparison with the other lipids, such as Compritol® ATO 888 (glyceryl behenate), stearic acid, glyceryl mono stearate (GMS) and glyceryl di-stearate (Table 1). […] While screening liquid lipids, amphotericin B better dispersed/solubilized in castor oil (Table 1).

[5] = tested on: retinal pigmented epithelial cells (ATCC ARPE-19); type: cell-based
Procedure: In vitro cytotoxicity evaluation: The placebo (no Amphotericin B) formulations PEG-NLC and NLC alone were tested for cytotoxicity towards the retinal pigmented epithelial cells (ATCC ARPE-19) in a concentration range of 0.03%-1%. […] They were not cytotoxic to ARPE-19 cells up to a highest concentration of 30 μg/mL, indicating a high therapeutic index.

[6] = amphotericin B (1 mg) added to the solid lipid at 75° C., 2000 rpm for 10 mins

Compound: C[C@@H]1[C@H](O)[C@@H](C)/C=C/C=C/C=C/C=C/C=C/C=C/C=C/[C@H](O[C@@H]2O[C@H](C)[C@@H](O)[C@H](N)[C@@H]2O)C[C@@H]2O[C@](O)(C[C@@H](O)C[C@@H](O)[C@H](O)CC[C@@H](O)C[C@@H](O)CC(=O)O[C@H]1C)C[C@H](O)[C@H]2C(=O)O [AmB, Amphotericin B]
- MIC ([1]; Day1 post preparation): 0.62/0.62 μg/mL
- MFC ([1]; Day1 post preparation): 1.25/1.25 μg/mL
- MIC ([1]; Day10 post preparation): 0.62/0.62 μg/mL
- MFC ([1]; Day10 post preparation): 1.25/1.25 μg/mL
- MFC [2]: 2.5 µg/mL (≈ 2.71 µM)
- MIC [2]: 2.5 µg/mL (≈ 2.71 µM)
- log P [3]: 0.8
- solubility in water, methanol, and ethanol [3]: practically insoluble

Compound: CCCCCCCCCCCCCC(=O)OCC(COC(=O)CCCCCCCCCCCCC)OC(=O)CCCCCCCCCCCCC [Dynasan 114, glyceryl trimyristate]
- Solubility/Dispersion (Solid Lipid) [4, 6]: −

Compound: CCCCCCCCCCCCCCCC(=O)OCC(COC(=O)CCCCCCCCCCCCCCC)OC(=O)CCCCCCCCCCCCCCC [Dynasan 116, glyceryl tripalmitate]
- Solubility/Dispersion (Solid Lipid) [4, 6]: −

Compound: CCCCCCCCCCCCCCCCCC(=O)OCC(O)CO (stereo not shown) [GMS, glyceryl mono stearate]
- Solubility/Dispersion (Solid Lipid) [4]: −

Compound: CCCCCCCC/C=C\CCCCCCCC(=O)O [Oleic acid]
- Solubility/Dispersion (Liquid Lipid) [4]: −

Compound: Castor Oil
- Solubility/Dispersion (Liquid Lipid) [4]: +

Compound: Sesame Oil
- Solubility/Dispersion (Liquid Lipid) [4]: −

Compound: Soy bean oil
- Solubility/Dispersion (Liquid Lipid) [4]: −

Compound: benzalkonium chloride
- IC50 (cytotoxicity) [5]: 3.9 µg/mL
